# Assay results published in patent publication US7601746B2 (Shionogi & Co., Ltd., priority 2003, dated 2009).
# Target: T1, human TPO receptor (hTPOR) (Homo sapiens, UniProt P40238)
# T1 construct: expressed in transfected cells; host or cells: BaF-B03 (murine IL-3 dependent cell line)
# T1 sequence (P40238 26-635): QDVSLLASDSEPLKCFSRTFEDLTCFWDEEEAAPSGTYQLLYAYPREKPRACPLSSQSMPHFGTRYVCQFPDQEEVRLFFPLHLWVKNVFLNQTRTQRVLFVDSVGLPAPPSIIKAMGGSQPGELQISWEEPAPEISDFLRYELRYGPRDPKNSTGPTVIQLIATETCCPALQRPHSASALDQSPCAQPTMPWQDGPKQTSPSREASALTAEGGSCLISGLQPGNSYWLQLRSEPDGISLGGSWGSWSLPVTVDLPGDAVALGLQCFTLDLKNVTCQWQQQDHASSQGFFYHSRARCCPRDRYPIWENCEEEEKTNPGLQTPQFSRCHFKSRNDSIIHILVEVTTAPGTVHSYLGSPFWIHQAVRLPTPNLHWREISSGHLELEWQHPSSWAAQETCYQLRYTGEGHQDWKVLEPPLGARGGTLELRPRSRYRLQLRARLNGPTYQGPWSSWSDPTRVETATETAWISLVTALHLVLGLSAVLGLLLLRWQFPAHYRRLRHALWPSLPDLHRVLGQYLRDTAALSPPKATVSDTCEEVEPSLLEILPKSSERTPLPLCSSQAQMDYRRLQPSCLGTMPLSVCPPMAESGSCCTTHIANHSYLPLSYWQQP
# Experiment: Thrombopoietic activity: proliferation of TPO dependent BaF/hTPOR cells (WST-1, absorbance at 450 nm)
# Assay type: cell-based
# Details: 20 h + 4 h WST-1, ED50 = half concentration of the concentration showing the maximum thrombopoietic activity, Table 1
# Excerpt: The TPO dependent BaF/hTPOR cell line which was established by introducing human TPO receptor (hTPOR) into BaF-B03 cells according to Collins et al (J. Cell. Physiol., 137:293-298 (1988)) was used to test the thrombopoietic activity of the present compound. The DNA sequences and encoded peptide sequences for human hTPOR have been described by Vigon et al (Proc. Natl. Acad. Sci. USA, 89:5640-5644 (1992)). TPO dose not have any ability to support proliferation of interlukin-3 dependent parental cell line BaF-B03. BAF/hTPOR cells were maintained in RPMI medium and WEHI-3B conditioned medium as a source of murine interleukin-3 (IL-3). These cells were washed and resuspended in RPMI medium without a source of murine IL-3 and seeded into each well of 96-well microtiter plates at a density of 5×10^4 cells per well in the absence or presence of various concentration of hTPO or the present compound. After incubation at 37° C. for 20 hours in the 5% CO2 incubator, 10% WST-1 reagent (Takara Biomedicals, Japan) was added to each wells and the cells were further incubated for 4 hours. The absorbance at 450 nm was measured. Tables 1 and 2 exemplify the ED50 for tested compounds of the present invention, wherein the ED50 is the half concentration of the concentration showing the maximum thrombopoietic activity.
row,Compound,EC50
1,"CCCCCCCOCc1cccc(-c2csc(NC(=O)c3cc(F)c(/C=C(\C)C(=O)O)c(F)c3)n2)c1OC [Compound B1990, (E)-3-{2,6-difluoro-4-[4-(3-heptyloxymethyl-2-methyloxyphenyl)thiazol-2-ylcarbamoyl]phenyl}-2-methylacrylic acid]",12.1 nM
2,"CCCCCCOC(C)c1cccc(-c2csc(NC(=O)c3cc(Cl)c(C=C(C)C(=O)O)c(Cl)c3)n2)c1F (stereo not drawn) [Compound B99, 3-(2,6-dichloro-4-{4-[2-fluoro-3-(1-n-hexyloxyethyl)phenyl]thiazol-2-ylcarbamoyl)phenyl]-2-methylacrylic acid]",0.59 nM
3,"CCOCCCCOC(CC)c1cccc(-c2csc(NC(=O)c3cc(F)c(C=C(C)C(=O)O)c(F)c3)n2)c1F (stereo not drawn) [Compound B22, 3-[2,6-difluoro-4-(4-{3-[1-(4-ethyloxybutyloxy)propyl]-2-fluorophenyl}thiazol-2-ylcarbamoyl)phenyl]-2-methylacrylic acid]",1.14 nM
4,"CCC(CC)COCCc1cccc(-c2csc(NC(=O)c3cc(F)c(/C=C(\C)C(=O)O)c(F)c3)n2)c1OC [Compound B1959, (E)-3-[4-(4-{3-[2-(2-ethylbutyloxy)ethyl]-2-methyloxyphenyl}thiazol-2-ylcarbamoyl)-2,6-difluorophenyl]-2-methylacrylic acid]",11.3 nM
5,"CCCCCCc1cccc2c1OCc1sc(NC(=O)c3cc(Cl)c(/C=C(\C)C(=O)O)c(Cl)c3)nc1-2 [Compound A1316, (E)-3-[2,6-dichloro-4-(6-hexyl-4H-chromeno[4,3-d]thiazol-2-ylcabamoyl)phenyl]-2-methylacrylic acid]",5.29 nM
6,"CCCC(CCc1cccc2c1CCc1sc(NC(=O)c3cc(F)c(C=C(C)C(=O)O)c(F)c3)nc1-2)OC (stereo not drawn) [Compound A12, 3-{2,6-difluoro-4-[4,5-dihydro-6-(3-methyloxyhexyl)naphtho[1,2-d]thiazol-2-ylcabamoyl]phenyl}-2-methylacrylic acid]",0.8 nM

# Now from value to compound:
row,EC50,Compound
1,15.6 nM,"CO/C(=C\c1c(Cl)cc(C(=O)Nc2nc(-c3cccc(COCC(C)(C)C)c3OC)cs2)cc1Cl)C(=O)O [Compound B2022, (Z)-3-(2,6-dichloro-4-{4-[3-(2,2-dimethylpropyloxymethyl)-2-methyloxyphenyl]thiazol-2-ylcarbamoyl}phenyl)-2-methyloxyacrylic acid]"
2,13.9 nM,"CCCCCCOCc1cccc(-c2csc(NC(=O)c3cc(Cl)c(/C=C(\C)C(=O)O)c(Cl)c3)n2)c1OC [Compound B1993, (E)-3-{2,6-dichloro-4-[4-(3-hexyloxymethyl-2-methyloxyphenyl)thiazol-2-ylcarbamoyl]phenyl}-2-methylacrylic acid]"
3,9.96 nM,"CCC(CC)COCc1cccc(-c2csc(NC(=O)c3cc(F)c(/C=C(\OC)C(=O)O)c(F)c3)n2)c1OC [Compound B2024, (Z)-3-(4-{4-[3-(2-ethylbutyloxymethyl)-2-methyloxyphenyl]thiazol-2-ylcarbamoyl}-2,6-difluorophenyl)-2-methyloxyacrylic acid]"
4,19.9 nM,"COc1c(-c2csc(NC(=O)c3cc(Cl)c(/C=C(\C)C(=O)O)c(Cl)c3)n2)cccc1C(CC(C)(C)C)OC (stereo not drawn) [Compound B1054, (E)-3-(2,6-dichloro-4-{4-[2-methyloxy-3-(1-methyloxy-3,3-dimethylbutyl)phenyl]thiazol-2-ylcarbamoyl}phenyl)-2-methylacrylic acid]"

# Same assay, conditions: 20 h + 4 h WST-1, ED50 = half concentration of the concentration showing the maximum thrombopoietic activity, Table 2
row,EC50,Compound
1,25.9 nM,"CO/C(=C\c1c(Cl)cc(C(=O)Nc2nc(-c3cccc(C(OC)C(C)(C)C)c3F)c(OC)s2)cc1Cl)C(=O)O (stereo not drawn) [Compound B1909, (Z)-3-(2,6-dichloro-4-{4-[2-fluoro-3-(1-methyloxy-2,2-dimethylpropyl)phenyl]-5-methyloxythiazol-2-ylcarbamoyl}phenyl)-2-methyloxyacrylic acid]"
2,21 nM,"CCCCOCCc1cccc(-c2csc(NC(=O)c3cc(Cl)c(/C=C(\C)C(=O)O)c(Cl)c3)n2)c1OC [Compound B1836, (E)-3-(4-{4-[3-(2-butyloxyethyl)-2-methyloxyphenyl]thiazol-2-ylcarbamoyl}-2,6-dichlorophenyl)-2-methylacrylic acid]"
